Blank lines part the entries; values can stand above or below the molecule they belong to.
Columns and labels:
[1] = target: Plasmodium falciparum orotate phosphoribosyltransferase (PfOPRT) (Plasmodium falciparum, UniProt Q8N0R1); type: biochemical
[2] = target: T1, human orotate phosphoribosyltransferase (HsOPRT), OPRT domain of UMP synthase (Homo sapiens, UniProt P11172); type: biochemical
T1 sequence (P11172 2-245): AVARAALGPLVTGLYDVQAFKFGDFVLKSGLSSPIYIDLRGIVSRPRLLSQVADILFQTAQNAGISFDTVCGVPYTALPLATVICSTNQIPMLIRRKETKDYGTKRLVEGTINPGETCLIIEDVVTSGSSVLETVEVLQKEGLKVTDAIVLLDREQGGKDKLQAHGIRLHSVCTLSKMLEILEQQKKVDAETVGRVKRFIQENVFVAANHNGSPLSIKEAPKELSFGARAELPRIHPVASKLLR

[3] = target: T1, human orotate phosphoribosyltransferase (HsOPRT), OPRT domain of UMP synthase; experiment: steady-state kinetics; type: biochemical; settings: read-out: OMP / Km
steady-state kinetics = substrate: O=C(O)CP(=O)(O)O; experiment: steady-state kinetics; type: biochemical, Plasmodium falciparum; settings: Mg2+ ([…] MgCl2 in assay)
purified protein = substrate: O=C(O)c1cc(=O)[nH]c(=O)n1[C@@H]1O[C@H](COP(=O)(O)O)[C@@H](O)[C@H]1O; experiment: purified protein; type: biochemical, Plasmodium falciparum; settings: Mg2+ ([…] MgCl2 in assay); pH 8.0; 25.0 °C

Ki [1]: 40 ± 21 nM
Molecule: O=[N+]([O-])c1ccc(O[C@@H]2O[C@H](COP(=O)(O)O)[C@@H](O)[C@H]2O)cc1 [p-nitrophenyl β-D-ribose 5′-phosphate]

Ki [2]: 121 ± 30 nM | Ki [1]: 188 ± 40 nM
Molecule: O=[N+]([O-])c1ccc(O[C@@H]2O[C@H](CO)[C@@H](O)[C@H]2O)cc1 [p-nitrophenyl β-D-ribose]

Km [3]: 1.55 ± 0.61 µM
Molecule: O=C(O)c1cc(=O)[nH]c(=O)n1[C@@H]1O[C@H](COP(=O)(O)O)[C@@H](O)[C@H]1O [orotidine 5′-monophosphate]

B1: Plasmodium falciparum orotate phosphoribosyltransferase (PfOPRT) (Plasmodium falciparum) (protein)
chain: MTTIKENEFLCDEEIYKSFVHLKDKICEERKKKELVNNNIDNVNFNDDDDNNYDDDGNSYSSYIKEMKKLLKVVLLKYKALKFGEFILKSKRKSNYFFSSGVLNNIVSSNIICFLLSELILKNKLSFDYLLGASYKGIPMVSLTSHFLFESKKYSNIFYLYDRKEKKEYGDKNVIVGNLDDDDKDILNLKKKTKNNQDEEKKNIIIIDDVFTCGTALTEILAKLKTYEHLKVVAFIVLLNRNEYEINENNQKIYFKDIFEKRVGIPLYSILSYKDDIQSMI
Km (steady-state kinetics): 1590 µM | Km (purified protein): 3.73 ± 1.36 µM | kcat (purified protein): 1.96 ± 0.29 s⁻¹ | kcat/Km (purified protein): 530000 M⁻¹ s⁻¹
